Reference: patent US20060257441A1, “Natural essential oil sanitary insect pest repellent and its use” (SUZUKI YUSHI INDUSTRIAL CO., LTD., priority 2005, published 2006)

Tested on: Croton bug
Assay: Physiological activity (Croton bug repellency) test, Test Example 5
Assay type: in vivo
Details: 3% solution in 1:1 hexane/acetone
Text: A fraction 1 (16.192 g) of copaiba oil was given by silica gel column chromatography (replenishment silica gel: BW-127ZH, 350 g) using 3 liter of hexane as an elution solvent. A fraction 2 (2.868 g) was given by silica gel column chromatography (same as above) using a 4:4:1 mixture of hexane/chloroform/ethyl acetate as an elution solvent. A fraction 3 (1.401 g) was given by fractionating the remnant of the fraction 2 using a 1:1 solvent mixture of ethyl acetate/chloroform 21 as an elution solvent.
For comparison, the same test was conducted using copaiba oil and β-caryophyllene. The specimen was a 3% solution in the solvent. The solution was given using a 1:1 (volume ratio) mixture of hexane and acetone.

In the case of `C=C1CC/C=C(\C)CC[C@@H]2[C@@H]1CC2(C)C` [β-caryophyllene], the “Repellency ratio (%) with time” value (4 hours) is reported as 96.2%, the “Repellency ratio (%) with time” value (24 hours) is reported as 70.6% and the “Repellency ratio (%) with time” value (48 hours) is reported as 52.6%.
